Data reported in patent US6710049B2, “Azole compounds as anti-fungal agents” (Ranbaxy Laboratories Limited, priority 2000, dated 2004).
pIC50: −log10 of the molar value. ≈ marks a conversion by molar mass, not a printed value. Like-named read-outs stand apart in the source and are kept apart here.

Assays:
[1] = system: Aspergillus fumigatous; test: In vivo anti-fungal activity, ED50 in systemically infected mice; set-up: species or system Swiss albino mice; conditions: mice infected i.v. with Aspergillus fumigatous, dosing for five days
Procedure: The in-vivo evaluation of the compound can be carried out at a series of dose levels by oral or I. V. injection to mice which are inoculated I.V. with the minimum lethal dose of Candida albicans, Cryptococcus neoformans or Aspergillus fumigatus by the tail vein. Activity is based on the survival of a treated group of mice after the death of an untreated group of mice. For Aspergillus and Cryptococcus infections, target organs were cultured after treatment to document the number of mice cured of the infection for further assessment of activity.
Method: Briefly, Swiss albino mice weighing 20±2 G were injected intravenously (tail vein) with sufficient fungal cells to kill 100% of the untreated animals for Aspergillus fumigatous strain used. In all cases each group comprised of six mice. Five does levels, utilizing doubling dilution range, were employed per determination ranging from 25 to 1.56 mg/kg BW. Dosing was carried out for five days starting after 30 minutes of infection. […] Treated animals were monitored twice daily for 14 days post infection at which time the experiment was terminated and ED50 was calculated.

[2] = system: Penicilliuim 2306; test: MIC determination (NCCLS broth method); type: cell-based, Penicillium
Description: (§1) The in-vitro evaluation of the antifungal activity of the compounds can be performed by determining the minimum inhibitory concentration (MIC) as shown in Table 1 which is the concentration of the test compound in Rosewell Park Memorial Institute (RPMI) 1640 liquid medium buffered with 3-(Morpholino)propanesulphonic acid (MOPS) to pH 7, at which there is significant inhibition of the particular fungi. In practice the National Committee for Clinical Laboratory Standard (NCCLS) M27A document for Candida and Cryptococcus and M38P for Aspergillus was used to determine the MIC against yeast and filamentous fungi with suitable modifications for dermatophytes to other filamentous fungi. Three quality control strains were included each time the MIC were determined and readings recorded only when the Quality Control results fell into the acceptable range. After MIC results had been recorded, 100 μl from each of the well showing no growth was spread over Sabouraud Dextrose Agar (SDA) to determine the minimum fungicidal concentration (MFC) as shown in Table 2.

[3] = system: Aspergillus fumigatus isolates; test: Comparative in vitro MIC, isolate panel; type: cell-based
Description: as §1
(§2) A comparative in vitro and in vivo biologically activity data of the compound of our invention, 2-{[1R,2R]-2-(2,4-Difluorophenyl)-2-hydroxy-1-methyl-3-(1H-1,2,4-triazole-1-yl)propyl}-4-[(2′,2′,3′,3′-tetrafluoropropoxyphenyl)-3-(2H,4H)-1,2,4-thiotriazolone (Compound No. 3) with 2-[(1R,2R)-2-(2,4-difluorophenyl)-2-hydroxy-1-methyl-3-(1H-1,2,4-triazol-1-yl)propyl]-4-(2′,2′,3′,3′-tetraflouropropoxyphenyl)-3(2H,4H)-1,2,4-triazolone (TAK 187) and standard antifungal pharmaceuticals is given below: […]

[4] = system: All Candida isolates; test: Comparative in vitro MIC, isolate panel; type: cell-based
Description: as §1, §2

[5] = system: All fungal pathogens; test: Comparative in vitro MIC, isolate panel; type: cell-based
Description: as §1, §2

[6] = system: Rhizoupus spp. isolates; test: Comparative in vitro MIC, isolate panel; type: cell-based
Description: as §1, §2

[7] = system: All Filamentous isolates; test: Comparative in vitro MIC, isolate panel; type: cell-based
Description: as §1, §2

[8] = system: Penicillium spp. isolates; test: Comparative in vitro MIC, isolate panel; type: cell-based
Description: as §1, §2

[9] = system: Fusarium spp. isolates; test: Comparative in vitro MIC, isolate panel; type: cell-based
Description: as §1, §2

[10] = system: A flavus E2 - 1043; test: MIC determination (NCCLS broth method); type: cell-based
Procedure, shortened: (§3)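 Broth dilution per NCCLS M27A (yeasts) or M38P (filamentous fungi) in RPMI 1640 buffered with MOPS to pH 7; MIC taken as the concentration giving significant fungal inhibition, recorded only when three QC strains were within range. MFC determined by subculturing no-growth wells onto Sabouraud Dextrose Agar.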

[11] = system: Penicillium I - 1049; test: MIC determination (NCCLS broth method); type: cell-based
Procedure, shortened: as §3

[12] = system: Penicillium 2548; test: MIC determination (NCCLS broth method); type: cell-based
Procedure, shortened: as §3

[13] = system: Rhizopus (Ceylon); test: MIC determination (NCCLS broth method); type: cell-based
Procedure, shortened: as §3

[14] = system: A niger P1 - 1046; test: MIC determination (NCCLS broth method); type: cell-based
Procedure, shortened: as §3

[15] = system: Alternaria 1051; test: MIC determination (NCCLS broth method); type: cell-based
Procedure, shortened: as §3

[16] = system: A flavus E3 - 1044; test: MIC determination (NCCLS broth method); type: cell-based
Procedure, shortened: as §3

[17] = system: Mucor (Ceylon); test: MIC determination (NCCLS broth method); type: cell-based
Procedure, shortened: as §3

[18] = system: Fusarium 2960C; test: MIC determination (NCCLS broth method); type: cell-based
Procedure, shortened: as §3

[19] = system: Penicillium H - 1048; test: MIC determination (NCCLS broth method); type: cell-based
Procedure, shortened: as §3

[20] = system: Penicillium 3162; test: MIC determination (NCCLS broth method); type: cell-based
Procedure, shortened: as §3

[21] = system: C krusei 6258; test: MIC determination (NCCLS broth method); type: cell-based
Procedure, shortened: as §3

[22] = system: Fusarium 1050; test: MIC determination (NCCLS broth method); type: cell-based
Procedure, shortened: as §3

[23] = system: H capsulatum; test: MIC determination (NCCLS broth method); type: cell-based
Procedure, shortened: as §3

[24] = system: Fusarium 1827C; test: MIC determination (NCCLS broth method); type: cell-based
Procedure, shortened: as §3

[25] = system: C parapsilosis 22019; test: MIC determination (NCCLS broth method); type: cell-based
Procedure, shortened: as §3

[26] = system: C krusei 766.1; test: MIC determination (NCCLS broth method); type: cell-based
Procedure, shortened: as §3

[27] = system: A flavus P3 - 1041; test: MIC determination (NCCLS broth method); type: cell-based
Procedure, shortened: as §3

[28] = system: A flavus P2 - 1045; test: MIC determination (NCCLS broth method); type: cell-based
Procedure, shortened: as §3

[29] = system: Aspergillus species; conditions: isolates of Aspergillus species; cited from earlier work
[30] = system: T. mentagrophyte; test: Activity against dermatophytes; type: cell-based; set-up: unit not given here
Description: as §1, §2

[31] = system: T. rubrum; test: Activity against dermatophytes; type: cell-based; set-up: unit not given here
Description: as §1, §2

[32] = target: lanosterol 14α-de-methylase; conditions: the target enzyme in the fungus; cited from earlier work
[33] = read-out: Minimum Inhibitory Concentration (MIC)

Compound: C[C@@H](n1ncn(-c2ccc(OCC(F)(F)C(F)F)cc2)c1=O)[C@](O)(Cn1cncn1)c1ccc(F)cc1F [TAK 187, 2-[(1R,2R)-2-(2,4-difluorophenyl)-2-hydroxy-1-methyl-3-(1H-1,2,4-triazol-1-yl)propyl]-4-(2′,2′,3′,3′-tetraflouropropoxyphenyl)-3(2H,4H)-1,2,4-triazolone]
- ED50 ([1]; Day 7 post infection): 10.08 mg/kg body weight
- ED50 ([1]; Day 14 post infection): 20.39 mg/kg body weight
- Minimum Inhibitory Concentration (MIC) [2]: 8 µg/mL
- MIC50 [3]: 8 µg/mL (≈ 14.7 µM)
- MIC90 [3]: 8 µg/mL (≈ 14.7 µM)
- MIC G.M. [3]: 7.4 µg/mL (≈ 13.6 µM)
- MIC50 [4]: 0.5 µg/mL (≈ 0.922 µM)
- MIC90 [4]: 2 µg/mL (≈ 3.69 µM)
- MIC G.M. [4]: 0.45 µg/mL (≈ 0.83 µM)
- MIC50 [5]: 8 µg/mL (≈ 14.7 µM)
- MIC90 [5]: 32 µg/mL (≈ 59 µM)
- MIC G.M. [5]: 4.16 µg/mL (≈ 7.67 µM)
- MIC50 [6]: 4 µg/mL (≈ 7.37 µM)
- MIC90 [6]: 4 µg/mL (≈ 7.37 µM)
- MIC G.M. [6]: 4 µg/mL (≈ 7.37 µM)
- MIC50 [7]: 8 µg/mL (≈ 14.7 µM)
- MIC90 [7]: 32 µg/mL (≈ 59 µM)
- MIC G.M. [7]: 7.246 µg/mL (≈ 13.4 µM)
- MIC50 [8]: 16 µg/mL (≈ 29.5 µM)
- MIC90 [8]: 64 µg/mL (≈ 118 µM)
- MIC G.M. [8]: 18.664 µg/mL (≈ 34.4 µM)
- MIC50 [9]: 32 µg/mL (≈ 59 µM)
- MIC90 [9]: 64 µg/mL (≈ 118 µM)
- MIC G.M. [9]: 45.255 µg/mL (≈ 83.4 µM)
- Minimum Inhibitory Concentration (MIC) [10]: 4 µg/mL
- Minimum Inhibitory Concentration (MIC) [11]: 16 µg/mL
- Minimum Inhibitory Concentration (MIC) [12]: 16 µg/mL
- Minimum Inhibitory Concentration (MIC) [13]: 2 µg/mL
- Minimum Inhibitory Concentration (MIC) [14]: 0.5 µg/mL
- Minimum Inhibitory Concentration (MIC) [15]: 1 µg/mL
- Minimum Inhibitory Concentration (MIC) [16]: 1 µg/mL
- Minimum Inhibitory Concentration (MIC) [17]: 8 µg/mL
- Minimum Inhibitory Concentration (MIC) [18]: 32 µg/mL
- Minimum Inhibitory Concentration (MIC) [19]: 16 µg/mL
- Minimum Inhibitory Concentration (MIC) [20]: 32 µg/mL
- Minimum Inhibitory Concentration (MIC) [21]: 2 µg/mL
- Minimum Inhibitory Concentration (MIC) [22]: 64 µg/mL
- Minimum Inhibitory Concentration (MIC) [23]: 0.25 µg/mL
- Minimum Inhibitory Concentration (MIC) [24]: 32 µg/mL
- Minimum Inhibitory Concentration (MIC) [25]: 0.03 µg/mL
- Minimum Inhibitory Concentration (MIC) [26]: 2 µg/mL
- Minimum Inhibitory Concentration (MIC) [27]: 8 µg/mL
- Minimum Inhibitory Concentration (MIC) [28]: 4 µg/mL

Compound: OC(Cn1cncn1)(Cn1cncn1)c1ccc(F)cc1F [Fluconazole]
- minimum inhibitory concentration (MIC) values [29]: 400 µg/mL (≈ 1310 µM)
- Activity against dermatophytes [30]: >128
- Activity against dermatophytes [31]: >128
- MIC ([2]; Penicillium, read-out: Minimum Inhibitory Concentration (MIC)): > 128 µg/mL
- pIC50 [32]: 5.32
- MIC [3]: 256 µg/mL (≈ 836 µM)
- MIC50 ([3]; read-out: MIC50): 256 µg/mL (≈ 836 µM)
- MIC90 ([3]; read-out: MIC90): 256 µg/mL (≈ 836 µM)
- MIC [4]: 5.3 µg/mL (≈ 17.3 µM)
- MIC50 ([4]; read-out: MIC50): 8 µg/mL (≈ 26.1 µM)
- MIC90 ([4]; read-out: MIC90): 128 µg/mL (≈ 418 µM)
- MIC [5]: 105 µg/mL (≈ 343 µM)
- MIC [6]: 256 µg/mL (≈ 836 µM)
- MIC50 ([6]; read-out: MIC50): 256 µg/mL (≈ 836 µM)
- MIC90 ([6]; read-out: MIC90): 256 µg/mL (≈ 836 µM)
- MIC [7]: 199 µg/mL (≈ 650 µM)
- MIC [8]: 174 µg/mL (≈ 569 µM)
- MIC50 ([8]; read-out: MIC50): 256 µg/mL (≈ 836 µM)
- MIC90 ([8]; read-out: MIC90): 256 µg/mL (≈ 836 µM)
- MIC [9]: 256 µg/mL (≈ 836 µM)
- MIC50 ([9]; read-out: MIC50): 256 µg/mL (≈ 836 µM)
- MIC90 ([9]; read-out: MIC90): 256 µg/mL (≈ 836 µM)
- MIC [10, 33]: > 128 µg/mL
- MIC ([11]; I1049, read-out: Minimum Inhibitory Concentration (MIC)): > 128 µg/mL
- MIC [12, 33]: 128 µg/mL (≈ 418 µM)
- MIC [13, 33]: > 128 µg/mL
- MIC [14, 33]: 128 µg/mL (≈ 418 µM)
- MIC [15, 33]: > 128 µg/mL
- MIC [16, 33]: > 128 µg/mL
- MIC [17, 33]: > 128 µg/mL
- MIC [18, 33]: > 128 µg/mL
- MIC ([19]; H1048, read-out: Minimum Inhibitory Concentration (MIC)): > 128 µg/mL
- MIC [20, 33]: > 128 µg/mL
- MIC [21, 33]: 32 µg/mL (≈ 104 µM)
- MIC [22, 33]: > 128 µg/mL
- MIC [23, 33]: 4 µg/mL (≈ 13.1 µM)
- MIC [24, 33]: > 128 µg/mL
- MIC [25, 33]: 2 µg/mL (≈ 6.53 µM)
- MIC [26, 33]: 128 µg/mL (≈ 418 µM)
- MIC [27, 33]: > 128 µg/mL
- MIC [28, 33]: > 128 µg/mL
